Reference: PubChem BioAssay (NCI)
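1) Cells in 96-well plates. 2) Compound, 48 h, 5 concentrations. 3) Linear interpolation between surrounding doses. 4) Unreached endpoint = highest concentration. GI50 is the concentration that inhibits growth by half. TGI is the concentration that stops growth completely.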

What was measured:
Assay in all cases: NCI tumour cell line growth inhibition, 48 h
CCRF-CEM leukemia = test system: CCRF-CEM leukemia
M14 melanoma = test system: M14 melanoma
HCT-116 colon = test system: HCT-116 colon
SN12C renal = test system: SN12C renal
OVCAR-4 ovarian = test system: OVCAR-4 ovarian
A498 renal = test system: A498 renal
RPMI-8226 leukemia = test system: RPMI-8226 leukemia
KM12 colon = test system: KM12 colon
K-562 leukemia = test system: K-562 leukemia
NCI-H226 lung = test system: NCI-H226 lung
OVCAR-8 ovarian = test system: OVCAR-8 ovarian
MALME-3M melanoma = test system: MALME-3M melanoma
HCT-15 colon = test system: HCT-15 colon
NCI-H522 lung = test system: NCI-H522 lung
UACC-257 melanoma = test system: UACC-257 melanoma
SNB-75 CNS = test system: SNB-75 CNS
SK-MEL-2 melanoma = test system: SK-MEL-2 melanoma
OVCAR-3 ovarian = test system: OVCAR-3 ovarian

Row | Compound | TGI (CCRF-CEM leukemia) | TGI (M14 melanoma) | TGI (HCT-116 colon) | TGI (SN12C renal) | TGI (OVCAR-4 ovarian) | TGI (A498 renal) | TGI (RPMI-8226 leukemia) | TGI (KM12 colon) | TGI (K-562 leukemia) | TGI (NCI-H226 lung) | TGI (OVCAR-8 ovarian) | TGI (MALME-3M melanoma) | TGI (HCT-15 colon) | TGI (NCI-H522 lung) | TGI (UACC-257 melanoma) | TGI (SNB-75 CNS) | TGI (SK-MEL-2 melanoma) | TGI (OVCAR-3 ovarian) | GI50 (HCT-15 colon)
1 | C1=c2ccccc2=C2C(=C(c3ccccc3)C(c3ccccc3)=NN2c2ccccc2)S1 | > 100 µM | > 100 µM | > 100 µM | > 100 µM | > 100 µM | > 100 µM | > 100 µM | > 100 µM | > 100 µM | > 100 µM | > 100 µM | > 100 µM | > 100 µM | > 100 µM | > 100 µM | > 100 µM | > 100 µM |  | 
2 | O=C(O)Cc1ccc2c(c1O)C(=O)c1c(ccc(CC(=O)O)c1O)C2=O | > 100 µM | > 100 µM | > 100 µM | > 100 µM | > 100 µM | > 100 µM | > 100 µM | > 100 µM | > 100 µM | > 100 µM | > 100 µM | > 100 µM | > 100 µM | > 100 µM | > 100 µM | > 100 µM | > 100 µM | > 100 µM | 
3 | CCOC(=O)C1CC/C(=C(/C#N)C(=O)OC)N1 (stereo not given) | > 100 µM | > 100 µM | > 100 µM | > 100 µM | > 100 µM | > 100 µM | > 100 µM | > 100 µM | > 100 µM |  | > 100 µM |  | > 100 µM | > 100 µM | > 100 µM | > 100 µM | > 100 µM | > 100 µM | 
4 | CC(C)c1cccc(C(C)C)c1NC1=CC(=O)C(=O)c2ccccc21 | > 100 µM | > 100 µM | > 100 µM | > 100 µM |  | > 100 µM | > 100 µM | > 100 µM | > 100 µM | > 100 µM | > 100 µM | > 100 µM | > 100 µM | > 100 µM | > 100 µM |  | > 100 µM | > 100 µM | 
5 | COCC12CC(CC1=O)C1C2ON2c3ccccc3C(=O)C12c1ccccc1 (stereo not given) | > 100 µM | > 100 µM | > 100 µM | > 100 µM | > 100 µM | > 100 µM | > 100 µM |  | > 100 µM | > 100 µM | > 100 µM | > 100 µM | > 100 µM | > 100 µM | > 100 µM | > 100 µM |  |  | 
6 | O=C1C=C(Nc2ccccc2C(=O)CC(=O)C(=O)Nc2ccc(Cl)c(Cl)c2)c2ccccc2C1=O | > 100 µM | > 100 µM |  | > 100 µM | > 100 µM | > 100 µM | > 100 µM | > 100 µM | > 100 µM | > 100 µM | > 100 µM | 29.8 µM | > 100 µM | 54.5 µM | 47.6 µM |  | > 100 µM | > 100 µM | 
7 | COc1ccc(C2S/C(=C\c3cccc(O)c3)C(=O)N2NC(=O)Cc2ccccc2)cc1 (stereo not given) | > 100 µM | > 100 µM | > 100 µM | > 100 µM | > 100 µM | > 100 µM | > 100 µM | > 100 µM | > 100 µM | > 100 µM | > 100 µM | > 100 µM | > 100 µM | > 100 µM | > 100 µM | > 100 µM | > 100 µM |  | 
8 | COC(=O)c1cc(C)n(NC(=O)OC(C)(C)C)c1C | > 100 µM | > 100 µM | > 100 µM | > 100 µM |  | > 100 µM | > 100 µM | > 100 µM | > 100 µM | > 100 µM | > 100 µM | > 100 µM | > 100 µM | > 100 µM | > 100 µM | > 100 µM | > 100 µM | > 100 µM | 
9 | O=S(Cc1cc2c(cc1Br)OCO2)c1ccccc1 (stereo not given) | 76.3 µM | > 100 µM | > 100 µM | > 100 µM | > 100 µM | > 100 µM | 59.4 µM | 59.4 µM | > 100 µM | > 100 µM | > 100 µM | > 100 µM | > 100 µM | 56.3 µM | > 100 µM | > 100 µM | > 100 µM | > 100 µM | 
10 | Nn1c(N=Nc2c(O)[nH]c3ccccc23)n[nH]c1=S | > 100 µM | > 100 µM | > 100 µM | > 100 µM | > 100 µM | > 100 µM | > 100 µM | > 100 µM | > 100 µM | > 100 µM | > 100 µM | > 100 µM | > 100 µM | > 100 µM | > 100 µM |  | > 100 µM | > 100 µM | 
11 | COC(=O)/C(=N\O)C(C(=O)C=C(C)C)C(=O)C(=O)Nc1ccccc1C (stereo not given) | > 100 µM | > 100 µM | > 100 µM | > 100 µM | > 100 µM | > 100 µM | > 100 µM | > 100 µM | > 100 µM | > 100 µM | > 100 µM | > 100 µM | > 100 µM | > 100 µM | > 100 µM | > 100 µM | > 100 µM | > 100 µM | 
12 | NNC(=S)N/N=C/C(Cl)=C(\Cl)C(=O)O | > 100 µM | > 100 µM | > 100 µM | > 100 µM | > 100 µM | > 100 µM | > 100 µM |  | > 100 µM | > 100 µM | > 100 µM | > 100 µM | > 100 µM | > 100 µM | > 100 µM | > 100 µM | > 100 µM | > 100 µM | 
13 | O=C1C2Nc3ccccc3SC2C(=O)N1c1cccc([N+](=O)[O-])c1 (stereo not given) | > 100 µM | > 100 µM | > 100 µM | > 100 µM | > 100 µM | > 100 µM | > 100 µM | > 100 µM | > 100 µM | > 100 µM | > 100 µM | > 100 µM | > 100 µM | > 100 µM | > 100 µM | > 100 µM | > 100 µM | > 100 µM | 
14 | Nc1ccc(C(=O)NN2C(=O)C(Cl)C2c2cccc([N+](=O)[O-])c2)cc1 (stereo not given) | 30.4 µM | 39.6 µM | 34.2 µM | 36.9 µM | 33.4 µM | 45.4 µM | 71.2 µM | 30.6 µM | 47.5 µM | 36.8 µM | 39.3 µM | 35.6 µM | 45.7 µM | 25.1 µM | 51 µM | 35.6 µM | 35.7 µM | 41.8 µM | 
15 | CCCCCC(=O)Cc1cc(OC)cc2c1C(=O)Oc1cc(O)c(C(=O)O)c(CC(=O)CCCCC)c1O2 | > 100 µM | > 100 µM | 71.2 µM |  |  | > 100 µM | > 100 µM | > 100 µM | > 100 µM | > 100 µM | > 100 µM | > 100 µM |  | > 100 µM | > 100 µM | > 100 µM |  | 43.8 µM | 
16 | Cn1c2c(cc(-c3ccccc3)c1=O)COc1ccccc1-2 | 57.5 µM | 94.4 µM | 37.9 µM | > 100 µM | > 100 µM | > 100 µM | 42.1 µM | 29 µM | 53.2 µM | > 100 µM | > 100 µM | 50.8 µM | > 100 µM | 52.3 µM | > 100 µM | > 100 µM | 30.4 µM | > 100 µM | 
17 | CCCOCN1COCN=C1NC#N |  | > 100 µM | > 100 µM | > 100 µM | > 100 µM | > 100 µM | > 100 µM | > 100 µM | > 100 µM | > 100 µM | > 100 µM | > 100 µM | 32.6 µM | > 100 µM | > 100 µM | > 100 µM | > 100 µM | > 100 µM | 
18 | C/C(CN1C(=O)c2ccccc2C1=O)=N\NS(=O)(=O)c1ccc(F)cc1 | > 100 µM | > 100 µM | > 100 µM | > 100 µM | > 100 µM | > 100 µM | > 100 µM | > 100 µM | > 100 µM | > 100 µM | > 100 µM | > 100 µM | > 100 µM | > 100 µM | > 100 µM | > 100 µM | > 100 µM | > 100 µM | 
19 | CO[C@@]12CC(=O)/C(=C(O)\C=C\c3ccccc3)C(=O)[C@]1(OC)Cc1ccccc1O2 | 84.6 µM | > 100 µM | > 100 µM | > 100 µM | > 100 µM | 90.7 µM |  | 46.6 µM | > 100 µM | 50.2 µM | 77.3 µM | > 100 µM | 51.7 µM | 83.8 µM | > 100 µM | > 100 µM | > 100 µM | 55.9 µM | 
20 | C[N+](C)(Cc1ccc(NC(=O)CCCC(=O)ON2C(=O)CCC2=O)cc1)c1ccccc1 | > 100 µM | > 100 µM | 18.2 µM | > 100 µM | 2.29 µM | > 100 µM |  | > 100 µM | > 100 µM | 0.0133 µM | > 100 µM | < 0.01 µM | > 100 µM | > 100 µM | < 0.01 µM | 2.42 µM | > 100 µM | > 100 µM | > 100 µM
21 | COc1ccc(/C(Cl)=C/c2ccc(Cl)c(Cl)c2)cc1 | 47.8 µM | > 100 µM | 80.3 µM | > 100 µM | > 100 µM | 72.8 µM | 53.9 µM |  | > 100 µM | 53.2 µM | > 100 µM | 56.8 µM | 97.3 µM | 41.1 µM | 66.2 µM | 99.7 µM |  |  | 
